According to PMC9316523, “Design, Synthesis and Molecular Docking of Novel Acetophenone-1,2,3-Triazoles Containing Compounds as Potent Enoyl-Acyl Carrier Protein Reductase (InhA) Inhibitors” (Pharmaceuticals, 2022):
Values after ≈ are worked out from the molar mass of the structure shown. Where two headings read alike, the source gives them in different places.

Tests used:
M. tuberculosis InhA = target: T1, M. tuberculosis InhA (Mycobacterium tuberculosis, UniProt P9WGR1); test: InhA enzymatic inhibition assay (NADH oxidation at 340 nm); assay type: biochemical
T1 construct: made in house; host or cells: E. coli

[1] = tested on: Mycobacterium tuberculosis; conditions: cited from earlier work
[2] = target: enoyl-acyl carrier protein reductase InhA enzyme; set-up: method as in PMID 32987135; conditions: cited from earlier work
[3] = 70 nM InhA, 2 h pre-incubation, 25 °C, pH 6.8, read-out: InhA inhibition IC50

T1 sequence (P9WGR1 whole entry, looked up): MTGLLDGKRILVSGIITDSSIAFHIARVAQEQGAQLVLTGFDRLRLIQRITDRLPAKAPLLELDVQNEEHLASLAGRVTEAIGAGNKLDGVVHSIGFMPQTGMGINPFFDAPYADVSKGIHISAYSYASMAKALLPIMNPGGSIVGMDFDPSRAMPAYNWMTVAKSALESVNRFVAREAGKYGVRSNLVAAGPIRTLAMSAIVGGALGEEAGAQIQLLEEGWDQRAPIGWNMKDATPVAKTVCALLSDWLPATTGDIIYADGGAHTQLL

CC(=O)c1ccc(OCc2cn(CC(=O)Nc3ccccc3F)nn2)cc1 [Compound 9, 2-(4-((4-Acetylphenoxy)methyl)-1H-1,2,3-triazol-1-Yl)-N-(2-fluorophenyl)acetamide]
melting point: 179 to 180 °C
IC50 (M. tuberculosis InhA): 5 nM
inhibition at 10 µM (M. tuberculosis InhA): 100%

CC(=O)c1ccc(OCc2cn(CC(=O)Nc3ccc([N+](=O)[O-])cc3)nn2)cc1 [Compound 10, 2-(4-((4-Acetylphenoxy)methyl)-1H-1,2,3-triazol-1-Yl)-N-(4-nitrophenyl)acetamide]
melting point: 185 to 186 °C
IC50 (M. tuberculosis InhA): 8 nM
inhibition at 10 µM (M. tuberculosis InhA): 100%

CC(=O)c1ccc(OCc2cn(CC(=O)Nc3ccc(Cl)c(Cl)c3)nn2)cc1 [Compound 11, 2-(4-((4-Acetylphenoxy)methyl)-1H-1,2,3-triazol-1-Yl)-N-(3,4-dichlorophenyl)acetamide]
melting point: 205 to 206 °C
IC50 (M. tuberculosis InhA; [3]): 43 nM
inhibition at 10 µM (M. tuberculosis InhA): 100%

CC(=O)c1ccc(OCc2cn(CC(=O)NCc3ccc(F)cc3)nn2)cc1 [Compound 12, 2-(4-((4-Acetylphenoxy)methyl)-1H-1,2,3-triazol-1-Yl)-N-(4-fluorobenzyl)acetamide]
melting point: 165 to 166 °C
IC50 (M. tuberculosis InhA; [3]): 41 nM
inhibition at 10 µM (M. tuberculosis InhA): 100%

CC(=O)c1ccc(OCc2cn(CC(=O)NCc3ccc(C)cc3)nn2)cc1 [Compound 13, 2-(4-((4-Acetylphenoxy)methyl)-1H-1,2,3-triazol-1-Yl)-N-(4-methylbenzyl)acetamide]
melting point: 180 to 182 °C
IC50 (M. tuberculosis InhA; [3]): 84 nM
inhibition at 10 µM (M. tuberculosis InhA): 100%

COc1ccc(CNC(=O)Cn2cc(COc3ccc(C(C)=O)cc3)nn2)cc1 [Compound 14, 2-(4-((4-Acetylphenoxy)methyl)-1H-1,2,3-triazol-1-Yl)-N-(4-methoxybenzyl)acetamide]
melting point: 125 to 126 °C
IC50 (M. tuberculosis InhA): 2 nM
inhibition at 10 µM (M. tuberculosis InhA): 100%

Clc1ccc(OCc2cn(Cc3ccc(Br)cc3)nn2)cc1 [Lead structure A]
MIC [1]: 5.8 µg/mL (≈ 15.3 µM)

CC[C@H](CO)C(=O)c1ccc(OCc2ccccc2)cc1O [Lead structure B]
IC50 [2]: 380 nM

COc1ccccc1NC(=O)Cn1cc(COc2ccc3c(c2)CCC3)nn1 [Lead structure C]
MIC [1]: 6.25 µg/mL (≈ 16.5 µM)

O=C(Cn1cc(-c2ccccc2)nn1)Nc1ccccc1 [Lead structure D]
MIC [1]: 0.08 µg/mL (≈ 0.287 µM)

CO[C@H]1/C=C/O[C@@]2(C)Oc3c(C)c(O)c4c(O)c(c(/C=N/N5CCN(C)CC5)c(O)c4c3C2=O)NC(=O)/C(C)=C\C=C\[C@H](C)[C@H](O)[C@@H](C)[C@@H](O)[C@@H](C)[C@H](OC(C)=O)[C@@H]1C [Rifampicin, reference compound]
IC50 (M. tuberculosis InhA; [3]): 8500 nM
inhibition at 10 µM (M. tuberculosis InhA): 58.8%
